In patent publication US20260091015A1, “TREATING IRON DEFICIENCY WITH FERRIC CARBOXYMALTOSE” (PHARMACOSMOS HOLDING A/S, priority 2018, published 2026):

Key:
[1] = tested on: ionized calcium; test: Ionized calcium, ion-selective electrode, trials IDA-04/IDA-05; type: in vivo, human; details: IDA-04 and IDA-05 combined
Excerpt: The term “serum ionized calcium” as used herein refers to the level of calcium ions (Ca^2+) in blood serum as measured using the IL GEM Premier 3500 PAK cartridge. The central component is the sensor card, which provides a low volume, gas tight chamber in which the blood sample is presented to the sensors. The pH and electrolyte sensors are all based on the principle of ion-selective electrodes; that is, an electrical potential can be established across a membrane which is selectively permeable to a specific ion. The pH and electrolyte sensors are polyvinyl chloride (PVC) based ion selective electrodes, consisting of an internal Ag/AgCl reference electrode and internal salt layer. The potentials are measured against the card reference electrode. […]
The following safety laboratory assessments were analysed: • S-phosphate: inorganic phosphorous forms an ammonium phosphomolybdate complex having the formula (NH4)3[PO4](MoO3)12 with ammonium molybdate in the presence of sulfuric acid. The complex was determined photometrically in the ultraviolet region (340 nm) of the spectrum using the Roche Modular and Cobas Analyzer. • iFGF23 and cFGF23: the human intact FGF23 was measured by the 2nd generation Elisa kit manufactured by Immonotropics, Inc, San Clemente, CA. […] The human C-terminal FGF23 was measured by the Elisa kit manufactured by Immonotropics, Inc, San Clemente, CA. […]

[2] = Respiratory muscles strength (MIP and MEP), trials IDA-04/IDA-05; type: in vivo, human; details: relative to the comparator IV iron treatment
Experimental: The trial was a randomized, open-label, comparative trial. Subjects with Iron Deficiency Anaemia (IDA) were randomized 1:1 to one treatment course of one of the following treatments: • Group A: iron isomaltoside 1000 (Monofer®, Pharmacosmos, Holbok, Denmark, termed iron isomaltoside in the following), 1000 mg at baseline • Group B: ferric carboxymaltose (Ferinject®/Injectafer®, Vifor Inc, Switzerland), 750 mg at baseline and day 7, cumulative dose: 1500 mg […]
The measurements of MIP and MEP provided a non-invasive clinical method for evaluating the strength of respiratory muscles, and it was the most widely used test to assess muscle pressures [ATS/ERS statement, 2002]. […] MIP and MEP were measured by MicroRPM (CareFusion Germany 234 GmbH, Hoechberg, Germany). […]

## ferric carboxymaltose [FCM]
[1]
  ionized calcium: decrease
[2]
  respiratory muscle strength (maximal inspiratory and/or expiratory pressure): reduced
